The text below walks through data of ChEMBL document CHEMBL3639270, “Therapeutic agents” (2013).

The assay has as its target E3 ubiquitin-protein ligase Mdm2 (Homo sapiens, UniProt Q00987). In words: ELISA Assay: Streptavidin-coated 96-well plates are used to immobilise a biotin-tagged IP3 p53-derived peptide ([…]). This is a peptide analogue derived from the p53 binding site for MDM2 ([…]). […] Aliquots of MDM2 generated by in vitro translation are pre-incubated for 20 minutes at room temperature (i.e. 20-25C.) with test compounds and controls, before transfer into the IP3-coated 96-well plates. In general terms: ELISA stands for enzyme-linked immunosorbent assay.

Sequence of E3 ubiquitin-protein ligase Mdm2 (Q00987 whole entry): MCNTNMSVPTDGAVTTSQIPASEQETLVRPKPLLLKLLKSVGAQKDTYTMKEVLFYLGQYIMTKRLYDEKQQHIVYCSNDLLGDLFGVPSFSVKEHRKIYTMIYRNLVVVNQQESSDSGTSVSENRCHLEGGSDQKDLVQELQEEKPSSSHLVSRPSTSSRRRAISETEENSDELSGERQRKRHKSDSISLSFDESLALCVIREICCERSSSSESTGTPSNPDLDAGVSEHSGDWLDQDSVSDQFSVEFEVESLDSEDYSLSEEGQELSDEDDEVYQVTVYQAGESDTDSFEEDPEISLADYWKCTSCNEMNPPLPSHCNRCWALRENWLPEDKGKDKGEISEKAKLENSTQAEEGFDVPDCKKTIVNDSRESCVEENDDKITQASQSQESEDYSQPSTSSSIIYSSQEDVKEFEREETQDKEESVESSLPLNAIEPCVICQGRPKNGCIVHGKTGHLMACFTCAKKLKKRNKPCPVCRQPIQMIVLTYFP

Compound `O=C1c2ccccc2C(O[C@H]2CCC[C@@H](O)CCC2)(c2ccc(Cl)cc2)N1Cc1ccc([N+](=O)[O-])cc1` (stereo partly specified) showed an IC50 of 375 nM.

As a reminder, the IC50 is the concentration that gives 50% inhibition. Low readings indicate inhibition by little substance, high ones a need for much substance.
